Experimental data: patent US8383626B2, “Nitric oxide donors for inducing neurogenesis” (Henry Ford Health System, priority 1999, dated 2013)

Experiments:
Assay type in all cases: in vivo, rat
ischemic rats (stroke) = test: Battery of neurological functional tests (NSS, Rotarod, footfault, adhesive removal, body weight) after stroke; settings: Group 3: iv at one day and two days after stroke; middle aged rats; vs control
Experimental: Administration of nitric oxide donor compound (DETA/NO) to normal and ischemic rats promotes neurogenesis in non-ischemic and ischemic brains. Since then, additional experiments have been performed to test the hypothesis that neurogenesis induced by DETA/NO promotes functional improvement after stroke; the data is provided herewith. Animals were administered (iv/ip) DETA/NO at one day (Group 1) or seven days (Group 2) after induction of stroke and followed by daily injection (ip) of DETA/NO over a period of seven days. Another NO donor compound (SNAP) was administered (iv) to ischemic rats at one day and two days after stroke (Group 3). Young (3 month old) rats were used in Groups 1 and 2. Middle aged rats (10 to 12 months old) were used in Group 3. A battery of neurological functional tests were measured from two days to forty-two days after stroke. These tests included 1) Neurological severity score (NSS) which measures motor, sensory and reflex functions and is similar to the contralateral neglect testing described in humans. The higher the score, the more severe the injury; 2) Rotarod test measures fore and hindlimb motor coordination and balance. Data are presented as percentage of baseline values; 3) Footfault test measures fore and hindlimb motor coordination. The higher the number, the more severe the injury; 4) Adhesive removal test measures sensorimotor impairments. Data are presented as time (seconds). The longer the time period, the more severe the injury; 5) Animal body weight.

[1] = test system: progenitor cells in the dentate gyrus and subventricular zone (SVZ); test: Cell proliferation (BrdU immunoreactive cells) in ischemic rats treated with VIAGRA; settings: 28 days after ischemia, vs saline
Experimental: (§1) The MCA was occluded by placement of an embolus at the origin of the MCA.
(§2) For BrdU immunostaining, DNA was first denatured by incubating brain sections (6 μm) in 50% formamide 2×SSC at 65° C. for 2 hours and then in 2 N HCL at 37° C. for 30 minutes. Sections were then rinsed with Tris buffer and treated with 1% of H2O2 to block endogenous peroxidase. Sections were incubated with a primary antibody to BrdU (1:100) at room temperature for 1 hour and then incubated with biotinylated secondary antibody (1:200, Vector, Burlingame, Calif.) for 1 hour. Reaction products were detected using 3′3′-diaminobenzidine-tetrahydrochloride (DAB, Sigma). For TuJ1 immunostaining, coronal sections were incubated with the antibody against TuJ1 (1:1000) at 4° C. overnight and then incubated with a biotinylated horse anti-mouse immunoglobulin antibody at room temperature for 30 minutes. Reaction products were detected with DAB.
BrdU immunostained sections were digitized using a 40× objective (Olympus BX40) via the MCID computer imaging analysis system (Imaging Research, St. Catharines, Canada). BrdU immunoreactive nuclei were counted on a computer monitor to improve visualization and in one focal plane to avoid over-sampling. Structures were sampled by analyzing entire structures on each section (SVZ and dentate gyrus). All BrdU immunoreactive-positive nuclei in these areas are presented as the number of the BrdU immunoreactive cells/mm^2 and data shown are mean±SE. Density for the selected several sections was averaged to obtain a mean density value for each animal. For measurements of TuJ1 immunoreactivity, a threshold was applied to each digitized image (628×480 μm^2) for ensuring that the numbers of TuJ1 immunostained pixels were representative of the original TuJ1 immunoreactive patterns. All objects with fewer than 5 pixels were eliminated from measurements. Data are presented as a percentage of area, in which the number of TuJ1 immunostained pixels was divided by the total number of pixels in the area (628×480 μm^2). […]

[2] = test system: ischemic rats (MCA occlusion); test: Behavior tests (foot-fault, adhesive removal) and body weight after MCA occlusion
Experimental: as §1
(§3) The ischemic rats (n=9) were treated with the same volume of saline as a control group. Rats received intraperitoneal injection of BrdU (50 mg/kg) 24 hours after ischemia and daily intraperitoneal injection of BrdU for 14 consecutive days. All rats were sacrificed 28 days after ischemia.

[3] = test system: TuJ1 immunoreactive cells; test: TuJ1 immunoreactivity 28 days after ischemia; settings: 2 or 5 mg/kg; vs contralateral hemisphere and saline treated ischemic rats
Experimental: as §2, with “3'3'-diaminobenzidine-tetrahydrochloride” for “3′3′-diaminobenzidine-tetrahydrochloride”, “DAB. BrdU immunostained sections were digitized using a 40× objective (Olympus BX40) via the MCID computer imaging analysis system (Imaging Research, St. Catharines, Canada). BrdU immunoreactive nuclei were counted on a computer monitor to improve visualization and in one focal plane to avoid over-sampling. Structures were sampled by analyzing entire structures on each section (SVZ and dentate gyrus). […] To examine the effects of […] on neurons, TuJ1 immunoreactivity was measured 28 days after ischemia.” for “DAB.”

[4] = test system: focal cerebral ischemia (MCA occlusion); test: Infarct volume 28 days after ischemia
Experimental: as §1, §3

Structure (SMILES) | motor and sensorimotor functions (Rotarod, footfault, Adhesive removal tests) (ischemic rats (stroke)) | numbers of BrdU immunoreactive cells in the ipsilateral SVZ ([1]; 2 mg/kg) | numbers of BrdU immunoreactive cells in the SVZ of both hemispheres ([1]; 5 mg/kg) | numbers of BrdU immunoreactive cells in the dentate gyrus of both hemispheres ([1]; oral 2 or 5 mg/kg initiated at 2 or 24 hours after stroke) | animal body weight loss ([2]; 2 mg/kg or 5 mg/kg initiated at 2 hours) | performance on the foot-fault test and the adhesive removal test ([2]; 2 mg/kg or 5 mg/kg initiated at 2 hours of onset of ischemia, during 2 to 21 days, vs saline) | foot-fault and adhesive removal tests ([2]; 2 mg/kg starting at 24 hours after onset of ischemia, during 7 to 28 days) | body weight loss ([2]; 2 mg/kg starting at 24 hours, at 4, 7 14, 21 and 28 days after ischemia) | TuJ1 immunoreactive cells in the ipsilateral SVZ and striatum [3] | infarct volume 28 days after ischemia ([4]; 2 mg/kg starting at 24 hours, vs control group) | infarct volumes measured 28 days after ischemia ([4]; 2 or 5 mg/kg initiated at 2 hours, vs saline) | % of infarct volume at 28 days (Mean ± SE) ([4]; group 1: 2 h after MCAo, 2 mg/kg oral × 7days) [%] | % of infarct volume at 28 days (Mean ± SE) ([4]; group 2: 2 h after MCAo, 5 mg/kg oral × 7days) [%] | % of infarct volume at 28 days (Mean ± SE) ([4]; group 3: 24 h after MCAo, 2 mg/kg oral × 7days) [%]
CC(=O)N[C@H](C(=O)O)C(C)(C)SN=O (racemic) [SNAP, S-nitroso-N-acetylpenicillamine] | significant improvements |  |  |  |  |  |  |  |  |  |  |  |  | 
CCCc1nn(C)c2c(=O)[nH]c(-c3cc(S(=O)(=O)N4CCN(C)CC4)ccc3OCC)nc12 [VIAGRA™, sildenafil] |  | significantly (p<0.05) increased | significantly (p<0.05) increased | significant (p<0.05) increases | significantly reduced | significantly improved performance | significant (p<0.05) improvements | significant (p<0.05) reduction | significantly (p<0.05) increased | no significant differences | not significantly different | 35.15 ± 3.25 | 37.67 ± 4.33 | 35.52 ± 0.93
